Data from patent US20100143980A1, “SYNTHESIS OF NOVEL XYLOSIDES AND POTENTIAL USES THEREOF” (priority 2007, published 2010).
Entries after “also recorded” stand apart in the source; their conditions may differ.

System: CHO pgsA-745
Assay: Priming of glycosaminoglycan synthesis by xylosides, 35S-sulfate incorporation into purified HS/CS
Assay type: cell-based
Conditions: 1 uM
Procedure: To determine whether the xylosides are able to prime the synthesis of glycosaminoglycans in cells in vitro experiments were performed using CHO pgsA-745. The cells were treated with appropriate primers in the presence of 35S—Na2SO4, glycosaminoglycans were purified and analyzed as described below. 1×10^4 cells were plated per well in Ham's/F12 complete growth medium in a 24-well plate. The cells were incubated at 37° C. in a humidified incubator for 24 hours to a confluency of about 50%. The cells were washed with sterile PBS and replaced with 450 μL ham's/F12 containing 10% dialyzed FBS. Solutions containing a specific primer at 100× the final concentration were prepared. 5 μL of appropriate 100× primer were added to various wells to yield a final concentration of 100 μM. 50 μCi of 35S—Na2SO4 was also added to each well as tracer. The 24-well plates were placed back in the 37° C. incubator for 24 hours before the addition of 100 μL 6× pronase solution followed by incubation at 37° C. overnight.
(§1) To determine whether the xylosides are able to prime the synthesis of glycosaminoglycans in cells, in vitro experiments were performed using CHO pgsA-745. The cells were treated with appropriate primers in the presence of 35S—Na2SO4, glycosaminoglycans were purified and analyzed as described below. 1×10^4 cells were plated per well in Ham's/F12 complete growth medium in a 24-well plate. The cells were incubated at 37° C. in a humidified incubator for 24 hours to a confluency of about 50%. The cells were washed with sterile PBS and replaced with 450 uL ham's/F12 containing 10% dialyzed FBS. Serial dilutions of the primers at 100× the final concentration were prepared. 5 uL of appropriate 100× primer were added to various wells to yield a final concentration of 1, 10, 100 and 1000 uM respectively. 50 uCi of 35S—Na2SO4 was also added to each well as tracer. The 24-well plates were placed back in the 37° C. incubator for 24 hours before the addition of 100 uL 6× pronase solution followed by incubation at 37° C. overnight.
The entire contents of the wells were transferred to a microcentrifuge tube and subjected to centrifugation at 16,000×g for 5 minutes. The supernatant was transferred to a fresh tube and half-a-volume of 0.016% Triton X-100 was added. The diluted supernant was loaded on 0.2 mL DEAE-sepharose column pre-equilibrated with 2 mL of 20 mM NaOAc buffer pH 6.0 containing 0.1 M NaCl and 0.01% Triton X-100 and the column was washed with 4 mL of buffer described above. The bound HS/CS was eluted using 1.2 mL elution buffer, 20 mM NaOAc, pH 6.0, containing 1 M NaCl. The extent of priming by the various xyloside primers was evaluated by quantifying the 35S-radioactivity incorporated in to the purified HS/CS elute by liquid scintillation. 50 uL of the various elutes were added to 5 mL of scintillation cocktail and the vials were counted in a scintillation counter in triplicate. The amount of radioactivity corresponds to the total glycosaminoglycan synthesis due to the primer.
as §1, with “a) To” for “To”, “cells” for “cells,”, “^35S—Na2SO4,” for “35S—Na2SO4,”, “37 C” for “37° C.”, “^35S—Na2SO4” for “35S—Na2SO4”, “The 24-well plates were placed back in the 37° C. incubator for 24 hours before the addition of 100 uL 6× pronase solution followed by incubation at 37° C. overnight.” left out

Row | Molecule | priming ability relative to the next highest primer at 1 uM
1 | O=S(=O)(c1ccccc1)[C@@H]1OC[C@@H](O)[C@H](O)[C@H]1O [sulfone-phenyl xyloside] | four times that of the next highest priming activity seen at this concentration

Same assay, conditions: 1 uM primer

Row | Molecule | GAG priming activity at 1 uM (in words)
2 | O=S(=O)(c1ccccc1)[C@@H]1OC[C@@H](O)[C@H](O)[C@H]1O [sulfone-phenyl xyloside] | better activity at concentration as low as 1 uM; also recorded: highest activity than any of the primers

Same assay, conditions: 10 uM primer

Row | Molecule | GAG priming activity at 10 uM (in words)
3 | O=S(=O)(c1ccccc1)[C@@H]1OC[C@@H](O)[C@H](O)[C@H]1O [sulfone-phenyl xyloside] | significantly higher priming activity than other xylosides
4 | O[C@@H]1[C@@H](O)[C@H](Sc2ccccc2)OC[C@H]1O [thiophenyl, beta-D-thiophenyl xyloside, reference compound] | significantly higher priming activity than other xylosides
5 | OC1COC(n2cc(COc3ccc4c(c3)CCCC4)nn2)C(O)C1O (stereo not shown) [tetrahydronaphthyl] | significantly higher priming activity than other xylosides

Same assay, conditions: 100 uM

Row | Molecule | priming activity relative to the thio-phenyl and thio-pyridyl primers
6 | O=S(=O)(c1ccccc1)[C@@H]1OC[C@@H](O)[C@H](O)[C@H]1O [sulfone-phenyl xyloside] | about 60%

Same assay, conditions: CHO pgsA-745 cells; concentration not given

Row | Molecule | GAG priming ability (in words, relative to the comparator named)
7 | COc1ccccc1-c1cn(C2OCC(O)C(O)C2O)nn1 (stereo not shown) [compound 32] | primed nearly two times the amount of GAG chains compared to the unsubstituted xyloside 29
8 | OC1COC(n2cc(COc3ccc(-c4ccc(Br)cc4)cc3)nn2)C(O)C1O (stereo not shown) [compound 17] | decreased
9 | OC1COC(n2cc(COc3ccc4cc(Br)ccc4c3)nn2)C(O)C1O (stereo not shown) [compound 19] | completely abolished the priming activity
10 | OC1COC(n2ccnn2)C(O)C1O (stereo not shown) [compound 1] | primed slightly better than the well known β-O-naphthyl xyloside
11 | COc1ccc(OCc2cn(C3OCC(O)C(O)C3O)nn2)cc1 (stereo not shown) [compound 9] | marginal effect on the priming ability
12 | OC1COC(n2cc(COc3ccccc3)nn2)C(O)C1O (stereo not shown) [compound 8] | prime GAGs albeit in lesser quantities than their respective β-anomers
13 | OC1COC(n2cc(COc3ccc4c(c3)CCCC4)nn2)C(O)C1O (stereo not shown) [compound 20] | did not significantly influence priming activity
14 | OC1COC(n2cc(COc3cc4ccccc4c4ccccc34)nn2)C(O)C1O (stereo not shown) [compound 21] | primed less GAG chains than the less hydrophobic xyloside (Table 1A: compound 18) did
15 | COc1ccc(OCc2cn(C3OCC(O)C(O)C3O)nn2)cc1 (stereo not shown) [compound 10] | prime GAGs albeit in lesser quantities than their respective β-anomers
16 | OC1COC(n2cc(COc3cccnc3)nn2)C(O)C1O (stereo not shown) [compound 6] | prime GAGs albeit in lesser quantities than their respective β-anomers
17 | OC1COC(n2cc(COCc3ccc(F)cc3)nn2)C(O)C1O (stereo not shown) [compound 24] | down regulates the priming ability
18 | OC1COC(n2cc(COCc3ccccc3)nn2)C(O)C1O (stereo not shown) [compound 23] | prime GAGs albeit in lesser quantities than their respective β-anomers
19 | OC1COC(n2cc(-c3ccccc3)nn2)C(O)C1O (stereo not shown) [compound 29] | decreased the priming ability by two fold
20 | COc1cc(OC)cc(-c2cn(C3OCC(O)C(O)C3O)nn2)c1 (stereo not shown) [compound 34] | showed decrease priming compared to the unsubstituted xyloside 29
21 | OCc1cccc(COCc2cn(C3OCC(O)C(O)C3O)nn2)c1 (stereo not shown) [compound 25] | down regulates the priming ability
22 | COc1ccc(-c2cn(C3OCC(O)C(O)C3O)nn2)cc1 (stereo not shown) [compound 33] | primed one-half the amount of GAG chains compared to the unsubstituted xyloside 29
23 | OC1COC(n2ccnn2)C(O)C1O (stereo not shown) [compound 2] | prime GAGs albeit in lesser quantities than their respective β-anomers

Same assay, conditions: fold less efficient than compound 7

Row | Molecule | priming efficiency compared to phenyl substituted xyloside compound 7 [times]
24 | OC1COC(n2cc(COc3cccnc3)nn2)C(O)C1O (stereo not shown) [compound 5] | 10

Same assay, conditions: relative to unsubstituted phenyl xyloside

Row | Molecule | loss of priming activity by para nitro substitution
25 | O=[N+]([O-])c1ccc(OCc2cn(C3OCC(O)C(O)C3O)nn2)cc1 (stereo not shown) [compound 15] | approximately 30%

System: CHO pgsA-745
Assay: Composition of HS and CS in the primed glycosaminoglycans (Chondroitinase AC digestion)
Assay type: cell-based
Conditions: share of HS in total GAG
Procedure: To determine the composition of the HS and CS in the glycosaminoglycans synthesized, a small aliquot of the elute (300 uL) was diluted 10-fold and digested using Chondroitinase AC. The sample was subjected to precipitation to remove the disaccharide in the presence of cold chondroitin sulfate A and scintillation counted. This gives the amount of HS primed on the xylosides and the difference in the radioactivity corresponds to the amount of chondroitin sulfate in the purified glycoaminoglycan elute.
b) To determine the composition of the HS and CS in the glycosaminoglycans synthesized, a small aliquot of the elute (300 uL) was diluted 10-fold and digested using Chondroitinase AC. The sample was subjected to precipitation to remove the disaccharide in the presence of cold chondroitin sulfate A and scintillation counted. This gives the amount of HS primed on the xylosides and the difference in the radioactivity corresponds to the amount of chondroitin sulfate in the purified glycoaminoglycan elute.

Row | Molecule | composition of HS in primed glycosaminoglycans [%] | composition of HS in primed glycosaminoglycans (in words)
26 | C-(2-naphthol)-xyloside | −72 | 
27 | OC1COC(n2cc(COc3ccc(F)cc3)nn2)C(O)C1O (stereo not shown) [fluoro-substituted derivative] |  | Half
28 | OC1COC(n2cc(COc3ccccc3)nn2)C(O)C1O (stereo not shown) [triazole-O-phenyl] |  | Half
